What was measured:
Format in all cases: in vivo
[1] = system: AMARE; test: Postemergence herbicidal activity, greenhouse, visual injury: AMARE; settings: 20-22 d
Experimental: (§1) Evaluation of Postemergence Herbicidal Safening in Cereal Crops
(§2) Seeds of the desired test plant species were planted in Sun Gro MetroMix® 306 planting mixture, which typically has a pH of 6.0 to 6.8 and an organic matter content of about 30 percent, in plastic pots with a surface area of 103.2 square centimeters (cm^2). When required to ensure good germination and healthy plants, a fungicide treatment and/or other chemical or physical treatment was applied. The plants were grown for 7-36 days (d) in a greenhouse with an approximate 14-hour (h) photoperiod which was maintained at about 18° C. during the day and 17° C. during the night. Nutrients and water were added on a regular basis and supplemental lighting was provided with overhead metal halide 1000-Watt lamps as necessary. The plants were employed for testing when they reached the second or third true leaf stage.
(§3) Treatments consisted of the acids or esters of compounds 1-10 and cloquintocet-mexyl (CQC-M), fenchlorazole-ethyl, mefenpyr-diethyl alone and in combination. Weighed amounts of acid or methyl esters of the compounds of formula (I) were dissolved in a volume of 97:3 v/v acetone/dimethylsulfoxide (DMSO) to obtain concentrated solutions. […] The concentrated solutions of the test compound were diluted with the addition of an aqueous mixture containing acetone, water, isopropyl alcohol, DMSO, Agri-Dex crop oil concentrate, and Triton® X-77 surfactant in a 64.7:26.0:6.7:2.0:0.7:0.01 v/v ratio. Test compounds were diluted to the appropriate application rate with a dilution solution which was prepared by mixing the appropriate volume of 97:3 v/v acetone/DMSO and the appropriate volume of an aqueous mixture containing acetone, water, isopropyl alcohol, DMSO, Agri-Dex crop oil concentrate, and Triton® X-77 surfactant in a 64.7:26.0:6.7:2.0:0.7:0.01 v/v ratio. Compound requirements are based upon a 12 mL application volume at a rate of 187 liters per hectare (L/ha). The concentrated solutions of the safener were prepared following the same procedure. Weighed amounts of safener were dissolved in a volume of 97:3 v/v acetone/DMSO to obtain concentrated safener solutions.
(§4) Spray solutions of the herbicide safener and test compound mixtures were prepared by adding the concentrated solutions to the appropriate amount of dilution solution to form 12 mL spray solution with active ingredients in combinations.
(§5) Formulated compounds were applied to the plant material with an overhead Mandel track sprayer equipped with 8002E nozzles calibrated to deliver 187 L/ha over an application area of 0.503 square meters (m^2) at a spray height of 18 inches (43 centimeters (cm)) above average plant canopy. Control plants were sprayed in the same manner with the solvent blank.
(§6) The treated plants and control plants were placed in a greenhouse as described above and watered by sub-irrigation to prevent wash-off of the test compounds. After 20-22 d, the condition of the test plants as compared with that of the control plants was determined visually and scored on a scale of 0 to 100 percent where 0 corresponds to no injury and 100 corresponds to complete kill.
(§7) Colby's equation was used to determine the herbicidal effects expected from the mixtures (Colby, S. R. Calculation of the synergistic and antagonistic response of herbicide combinations. Weeds 1967, 15, 20-22.).
(§8) The following equation was used to calculate the expected activity of mixtures containing two active ingredients, A and B: Expected=A+B−(A×B/100) […]

[2] = system: winter barley (Hordeum vulgare L; HORVW); test: Postemergence herbicidal safening in cereal crops, greenhouse, visual injury: winter barley; settings: 20-22 d
Experimental: as §1, §2, §3, §4, §5, §6, §7
(§9) The following equation was used to calculate the expected activity of mixtures containing two active ingredients, A and B: Expected=A+B−(A×B/100)
(§10) A=observed efficacy of active ingredient A at the same concentration as used in the mixture.
(§11) B=observed efficacy of active ingredient B at the same concentration as used in the mixture.

[3] = system: winter wheat (Triticum aestivum L; TRZAW); test: Postemergence herbicidal safening in cereal crops, greenhouse, visual injury: winter wheat; settings: 20-22 d
Experimental: as §1, §2, §3, §4, §5, §6, §7, §9, §10, §11

[4] = system: purple deadnettle (Lamium purpureum L; LAMPU); test: Postemergence herbicidal activity, greenhouse, visual injury: purple deadnettle; settings: Lamium purpureum, post-emergence, 480 h, 20-22 d, read-out: LAMPU Ob (visual injury)
Experimental: as §1, §2, §3, §4, §5, §6, §7, §9, §10, §11

[5] = system: spring wheat (Triticum aestivum L; TRZAS); test: Postemergence herbicidal safening in cereal crops, greenhouse, visual injury: spring wheat; settings: Triticum aestivum, post-emergence, 480 h, 20-22 d, read-out: TRZAS Ob (visual injury)
Experimental: as §1, §2, §3, §4, §5, §6, §7, §9, §10, §11

[6] = system: spring barley (Hordeum vulgare L; HORVS); test: Postemergence herbicidal safening in cereal crops, greenhouse, visual injury: spring barley; settings: Hordeum vulgare, post-emergence, 480 h, 20-22 d, read-out: HORVS Ob (visual injury)
Experimental: as §1, §2, §3, §4, §5, §6, §7, §9, §10, §11

[7] = system: durum wheat (Triticum durum L; TRZDU); test: Postemergence herbicidal safening in cereal crops, greenhouse, visual injury: durum wheat; settings: 20-22 d
Experimental: as §1, §2, §3, §4, §5, §6, §7, §9, §10, §11

[8] = system: GALAP; test: Postemergence herbicidal activity, greenhouse, visual injury: GALAP; settings: 20-22 d
Experimental: as §1, §2, §3, §4, §5, §6, §7, §8

[9] = system: lamb's-quarters (Chenopodium album L; CHEAL); test: Postemergence herbicidal activity, greenhouse, visual injury: lamb's-quarters; settings: herbicide alone 35 g ae/ha; 20-22 d
Experimental: as §1, §2, §3
Spray solutions of the herbicide safener and test compound mixtures were prepared by adding the concentrated solutions to the appropriate amount of dilution solution to form 12 mL spray solution with active ingredients in combinations. […]
as §6, with “kill. […]” for “kill.”

In the case of `COc1c(Cl)ccc(-c2nc(N)c(Cl)c(C(=O)O)n2)c1F` [Compound 1, 6-amino-5-chloro-2-(4-chloro-2-fluoro-3-methoxyphenyl)pyrimidine-4-carboxylic acid], the “AMARE Ob (visual injury)” value ([1]; herbicide alone 70 g/ha) is reported as 100%, the “AMARE Ob (visual injury)” value ([1]; herbicide alone 140 g/ha) is reported as 100% and the “HORVW Ob (visual injury)” value ([2]; herbicide alone 70 g/ha) is reported as 15%. The “HORVW Ob (visual injury)” value ([2]; herbicide alone 140 g/ha) was 40%, the “TRZAW Ob (visual injury)” value ([3]; herbicide alone 70 g/ha) was 35% and the “TRZAW Ob (visual injury)” value ([3]; herbicide alone 140 g/ha) was 40%. For the same compound, the pest or weed control at 70 g/ha ([4]; herbicide alone 70 g/ha) was 95%, the pest or weed control at 140 g/ha ([4]; herbicide alone 140 g/ha) was 99% and the pest or weed control at 70 g/ha ([5]; herbicide alone 70 g/ha) was 25%. The pest or weed control at 140 g/ha ([5]; herbicide alone 140 g/ha) was 45%, the pest or weed control at 70 g/ha ([6]; herbicide alone 70 g/ha) was 15% and the pest or weed control at 140 g/ha ([6]; herbicide alone 140 g/ha) was 30%. The “TRZDU Ob (visual injury)” value ([7]; herbicide alone 70 g/ha) was 15%, the “TRZDU Ob (visual injury)” value ([7]; herbicide alone 140 g/ha) was 35% and the “GALAP Ob (visual injury)” value ([8]; herbicide alone 70 g/ha) was 95%. For the same compound, the “GALAP Ob (visual injury)” value ([8]; herbicide alone 140 g/ha) was 95%.

`COc1c(N)nc(-c2ccc(C(F)(F)F)cc2)nc1C(=O)O` [Compound 3, 6-amino-2-(4-trifluoromethylphenyl)-5-methoxypyrimidine-4-carboxylic acid] was tested, and the “HORVW Ob (visual injury)” value ([2]; herbicide alone 8.75 g/ha) was 8%, the “TRZAW Ob (visual injury)” value ([3]; herbicide alone 8.75 g/ha) was 17% and the pest or weed control at 8.75 g/ha ([5]; herbicide alone 8.75 g/ha) was 15%. For the same compound, the pest or weed control at 35 g/ha ([5]; herbicide alone 35 g ae/ha) was 75%, the pest or weed control at 8.75 g/ha ([6]; herbicide alone 8.75 g/ha) was 13% and the pest or weed control at 35 g/ha ([6]; herbicide alone 35 g ae/ha) was 50%. The “CHEAL Ob (visual injury)” value [9] was 10% and the “TRZDU Ob (visual injury)” value ([7]; herbicide alone 8.75 g/ha) was 7%.
